US11109593B2, “Isoxazolin-5-one derivative and herbicide containing same as active ingredient” (HOKKO CHEMICAL INDUSTRY CO., LTD., priority 2017, dated 2021)

These compounds were tested on Echinochloa crus-galli (assay: Test Example 1: herbicidal effect test by treatment of rice paddy soil (immediately after seeding)). Settings: 120 g/10a active ingredient, dry weight vs untreated area, 14 days after treatment.
Type: in vivo
Outline: (§1)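 Application occurs immediately after seeding, with diluted emulsion added to paddy water (about 3 cm deep) over puddled, fertilized soil at 120 g active ingredient per 10 ares. Herbicidal rate is calculated from mean dry weight against untreated controls 14 days later.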

SMILES	Herbicidal rate (%) Echinochloa crus-galli [%]
CCOC(=O)N(c1ccccc1Cc1c(C)n(C(C)COC)oc1=O)S(=O)(=O)C(F)(F)F (centres unmarked) [Compound 1-615]	90
CCC(C)Cn1oc(=O)c(Cc2ccccc2N(C(=O)OCCOC)S(=O)(=O)C(F)(F)F)c1C (centres unmarked) [Compound 1-733]	100

These compounds were tested on broad leaf weeds (Lindernia pyxidaria and Monochoria vaginalis) in the same assay as above. Settings: Lindernia pyxidaria, 120 g/10a active ingredient, dry weight vs untreated area, 14 days after treatment.
Type: in vivo
Outline: as §1

SMILES	Herbicidal rate (%) Lindernia pyxidaria [%]
CCOC(=O)N(c1ccccc1Cc1c(C)n(C(C)COC)oc1=O)S(=O)(=O)C(F)(F)F (centres unmarked) [Compound 1-615]	90
CCC(C)Cn1oc(=O)c(Cc2ccccc2N(C(=O)OCCOC)S(=O)(=O)C(F)(F)F)c1C (centres unmarked) [Compound 1-733]	90

Same assay, conditions: Monochoria vaginalis, 120 g/10a active ingredient, dry weight vs untreated area, 14 days after treatment

SMILES	Herbicidal rate (%) Monochoria vaginalis [%]
CCOC(=O)N(c1ccccc1Cc1c(C)n(C(C)COC)oc1=O)S(=O)(=O)C(F)(F)F (centres unmarked) [Compound 1-615]	90
CCC(C)Cn1oc(=O)c(Cc2ccccc2N(C(=O)OCCOC)S(=O)(=O)C(F)(F)F)c1C (centres unmarked) [Compound 1-733]	90

Each compound was assayed on Scirpus juncoides in the same assay as above. Settings: 120 g/10a active ingredient, dry weight vs untreated area, 14 days after treatment.
Type: in vivo
Outline: as §1

SMILES	Herbicidal rate (%) Scirpus juncoides [%]
CCOC(=O)N(c1ccccc1Cc1c(C)n(C(C)COC)oc1=O)S(=O)(=O)C(F)(F)F (centres unmarked) [Compound 1-615]	90
CCC(C)Cn1oc(=O)c(Cc2ccccc2N(C(=O)OCCOC)S(=O)(=O)C(F)(F)F)c1C (centres unmarked) [Compound 1-733]	100

The compounds below were run on southern crabgrass (assay: Test Example 3: herbicidal effect test by treatment of dry field farming soil (one day after seeding)). Settings: 120 g/10a active ingredient, evaluated 14 days after treatment.
Type: in vivo
Outline: (§2)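 Pre-emergence soil treatment: alluvial dry-field soil, 20 seeds per species mixed into top 1 cm, emulsion diluted in water sprayed one day after seeding at 100 L per 10 ares (120 g active ingredient per 10 ares). Duplicate pots; herbicidal rate (%) from dry weight vs untreated at 14 days.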

SMILES	herbicidal rate, southern crabgrass [%]
CCOC(=O)N(c1ccccc1Cc1c(C)n(C(C)COC)oc1=O)S(=O)(=O)C(F)(F)F (centres unmarked) [Compound 1-615]	90
CCC(C)Cn1oc(=O)c(Cc2ccccc2N(C(=O)OCCOC)S(=O)(=O)C(F)(F)F)c1C (centres unmarked) [Compound 1-733]	100

The compounds below were run on Echinochloa crus-galli in the same assay as above. Settings: 120 g/10a active ingredient, evaluated 14 days after treatment.
Type: in vivo
Outline: as §2

SMILES	herbicidal rate, Echinochloa crus-galli [%]
CCOC(=O)N(c1ccccc1Cc1c(C)n(C(C)COC)oc1=O)S(=O)(=O)C(F)(F)F (centres unmarked) [Compound 1-615]	90
CCC(C)Cn1oc(=O)c(Cc2ccccc2N(C(=O)OCCOC)S(=O)(=O)C(F)(F)F)c1C (centres unmarked) [Compound 1-733]	100

The compounds below were run on Chenopodium album in the same assay as above. Settings: 120 g/10a active ingredient, evaluated 14 days after treatment.
Type: in vivo
Outline: as §2

SMILES	herbicidal rate, Chenopodium album [%]
CCOC(=O)N(c1ccccc1Cc1c(C)n(C(C)COC)oc1=O)S(=O)(=O)C(F)(F)F (centres unmarked) [Compound 1-615]	90
CCC(C)Cn1oc(=O)c(Cc2ccccc2N(C(=O)OCCOC)S(=O)(=O)C(F)(F)F)c1C (centres unmarked) [Compound 1-733]	60

What follows are compounds tested on Amaranthus viridis in the same assay as above. Settings: 120 g/10a active ingredient, evaluated 14 days after treatment.
Type: in vivo
Outline: as §2

SMILES	herbicidal rate, Amaranthus viridis [%]
CCOC(=O)N(c1ccccc1Cc1c(C)n(C(C)COC)oc1=O)S(=O)(=O)C(F)(F)F (centres unmarked) [Compound 1-615]	90
CCC(C)Cn1oc(=O)c(Cc2ccccc2N(C(=O)OCCOC)S(=O)(=O)C(F)(F)F)c1C (centres unmarked) [Compound 1-733]	80

Each compound was assayed on southern crabgrass (assay: Test Example 4: herbicidal effect test by treatment of leave and stem in dry field farming (seven days after seeding)). Settings: 120 g/10a active ingredient; emulsion sprayed seven days after seeding; evaluated 14 days after treatment.
Type: in vivo
Outline: (§3)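 Twenty seeds per species were mixed into the top 1 cm of alluvial soil in 36 cm^2 pots; emulsions were sprayed seven days after seeding at 100 L per 10 ares (120 g active ingredient per 10 ares). Herbicidal rate (%) = {1 − treated/untreated mean dry weight} × 100, 14 days after treatment, duplicate.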

SMILES	herbicidal effect (herbicidal rate), southern crabgrass [%]
CCOC(=O)N(c1ccccc1Cc1c(C)n(C(C)COC)oc1=O)S(=O)(=O)C(F)(F)F (centres unmarked) [Compound 1-615]	90
CCC(C)Cn1oc(=O)c(Cc2ccccc2N(C(=O)OCCOC)S(=O)(=O)C(F)(F)F)c1C (centres unmarked) [Compound 1-733]	80

The compounds below were run on Echinochloa crus-galli in the same assay as above. Settings: 120 g/10a active ingredient; emulsion sprayed seven days after seeding; evaluated 14 days after treatment.
Type: in vivo
Outline: as §3

SMILES	herbicidal effect (herbicidal rate), Echinochloa crus-galli [%]
CCOC(=O)N(c1ccccc1Cc1c(C)n(C(C)COC)oc1=O)S(=O)(=O)C(F)(F)F (centres unmarked) [Compound 1-615]	90
CCC(C)Cn1oc(=O)c(Cc2ccccc2N(C(=O)OCCOC)S(=O)(=O)C(F)(F)F)c1C (centres unmarked) [Compound 1-733]	90

What follows are compounds tested on Chenopodium album in the same assay as above. Settings: 120 g/10a active ingredient; emulsion sprayed seven days after seeding; evaluated 14 days after treatment.
Type: in vivo
Outline: as §3

SMILES	herbicidal effect (herbicidal rate), Chenopodium album [%]
CCOC(=O)N(c1ccccc1Cc1c(C)n(C(C)COC)oc1=O)S(=O)(=O)C(F)(F)F (centres unmarked) [Compound 1-615]	40
CCC(C)Cn1oc(=O)c(Cc2ccccc2N(C(=O)OCCOC)S(=O)(=O)C(F)(F)F)c1C (centres unmarked) [Compound 1-733]	60

Each compound was assayed on Amaranthus viridis in the same assay as above. Settings: 120 g/10a active ingredient; emulsion sprayed seven days after seeding; evaluated 14 days after treatment.
Type: in vivo
Outline: as §3

SMILES	herbicidal effect (herbicidal rate), Amaranthus viridis [%]
CCOC(=O)N(c1ccccc1Cc1c(C)n(C(C)COC)oc1=O)S(=O)(=O)C(F)(F)F (centres unmarked) [Compound 1-615]	40
CCC(C)Cn1oc(=O)c(Cc2ccccc2N(C(=O)OCCOC)S(=O)(=O)C(F)(F)F)c1C (centres unmarked) [Compound 1-733]	60

What follows are compounds tested on Echinochloa crus-galli (assay: Test Example 2: herbicidal effect test by treatment during growing period in paddy rice cultivation (seven days after seeding)). Settings: 120 g/10a active ingredient, assessed 14 days after treatment, dry weight vs untreated area.
Type: in vivo
Outline: (§4)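 Paddy soil in Wagner pots with compound fertilizer, puddled; 30 seeds per species sown at 0–1 cm, flooded ~3 cm, greenhouse. Seven days after seeding, water-diluted emulsions were dropped into the water at 120 g active ingredient per 10 ares. Duplicate pots; herbicidal rate from dry weight versus untreated, 14 days after treatment.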

SMILES	Herbicidal rate (%) Echinochloa crus-galli [%]
CCOC(=O)N(c1ccccc1Cc1c(C)n(C(C)COC)oc1=O)S(=O)(=O)C(F)(F)F (centres unmarked) [Compound 1-615]	90
CCC(C)Cn1oc(=O)c(Cc2ccccc2N(C(=O)OCCOC)S(=O)(=O)C(F)(F)F)c1C (centres unmarked) [Compound 1-733]	100

These compounds were tested on broad leaf weeds (Lindernia pyxidaria and Monochoria vaginalis) in the same assay as above. Settings: Lindernia pyxidaria, 120 g/10a active ingredient, assessed 14 days after treatment, dry weight vs untreated area.
Type: in vivo
Outline: as §4

SMILES	Herbicidal rate (%) Lindernia pyxidaria [%]
CCOC(=O)N(c1ccccc1Cc1c(C)n(C(C)COC)oc1=O)S(=O)(=O)C(F)(F)F (centres unmarked) [Compound 1-615]	90
CCC(C)Cn1oc(=O)c(Cc2ccccc2N(C(=O)OCCOC)S(=O)(=O)C(F)(F)F)c1C (centres unmarked) [Compound 1-733]	70

Same assay, conditions: Monochoria vaginalis, 120 g/10a active ingredient, assessed 14 days after treatment, dry weight vs untreated area

SMILES	Herbicidal rate (%) Monochoria vaginalis [%]
CCOC(=O)N(c1ccccc1Cc1c(C)n(C(C)COC)oc1=O)S(=O)(=O)C(F)(F)F (centres unmarked) [Compound 1-615]	90
CCC(C)Cn1oc(=O)c(Cc2ccccc2N(C(=O)OCCOC)S(=O)(=O)C(F)(F)F)c1C (centres unmarked) [Compound 1-733]	90

These compounds were tested on Scirpus juncoides in the same assay as above. Settings: 120 g/10a active ingredient, assessed 14 days after treatment, dry weight vs untreated area.
Type: in vivo
Outline: as §4

SMILES	Herbicidal rate (%) Scirpus juncoides [%]
CCOC(=O)N(c1ccccc1Cc1c(C)n(C(C)COC)oc1=O)S(=O)(=O)C(F)(F)F (centres unmarked) [Compound 1-615]	90
CCC(C)Cn1oc(=O)c(Cc2ccccc2N(C(=O)OCCOC)S(=O)(=O)C(F)(F)F)c1C (centres unmarked) [Compound 1-733]	90
